# Experimental data reported in patent publication US9018214B2, “Bicyclic heterocycle compounds and their uses in therapy” (Astex Therapeutics Limited, priority 2011, dated 2015).
# Counter-ions that a name gives are not always drawn. Like-named read-outs stand apart in the source and are kept apart here.
# Legend:
# [1] = system: EVSA-T (human breast carcinoma); assay: Anti-proliferative activity, Alamar Blue assay, EVSA-T; type: cell-based; settings: Homo sapiens, EVSA-T, 72 h, read-out: EVSA-T prolif (EC50)
# [2] = target: BIR3 domain of human XIAP (residues 252-350) (Homo sapiens (Human), UniProt P98170); assay: XIAP in vitro competitive displacement binding assay (fluorescence polarization); settings: for IC50: read-out: IC50 or PI Xiap: IC50
# [3] = target: BIR3 domain of human cIAP-1 (residues 267-363) (Homo sapiens (Human), UniProt Q13490); assay: cIAP-1 in vitro competitive displacement binding assay (fluorescence polarization; Probe A AVPIK(5&6FAM)-amide or Probe B AbuRPFK(5&6FAM)-amide)
# [4] = Probe B AbuRPFK(5&6FAM)-amide, read-out: IC50 or PI cIAP1: IC50
# [5] = read-out: IC50 or PI cIAP1: IC50
# [6] = Probe A AVPIK(5&6FAM)-amide, read-out: IC50 or PI cIAP1: IC50
IC50 [2],"IC50 [3, 4]",SMILES,also measured
–,–,"COC[C@H]1CN[C@H](C)CN1CC(=O)N1CC(C)(C)c2cnc(Cl)cc21 [Example 62, 1-(6-Chloro-3,3-dimethyl-2,3-dihydro-pyrrolo[3,2-c]pyridin-1-yl)-2-((2R,5R)-2-methoxy-methyl-5-methyl-piperazin-1-yl)-ethanone hydrochloride salt]",EC50 [1]: 3.8 µM
–,–,"CCCC(F)(F)c1cnc2c(c1)N(C(=O)CN1C[C@@H](C)NC[C@@H]1CN1CCCC1=O)CC2(C)C [Example 217, 1-{[(2R,5R)-1-{2-[6-(1,1-Difluorobutyl)-3,3-dimethyl-1H,2H,3H-pyrrolo[3,2-b]pyridin-1-yl]-2-oxoethyl}-5-methylpiperazin-2-yl]methyl}pyrrolidin-2-one hydrochloride]",EC50 [1]: 0.05 µM
–,–,"CC(C)CC(F)(F)c1cnc2c(c1)N(C(=O)CN1C[C@@H](C)NC[C@@H]1CN1CCOCC1)CC2(C)C [Example 235, 1-[6-(1,1-Difluoro-3-methylbutyl)-3,3-dimethyl-1H,2H,3H-pyrrolo[3,2-b]pyridin-1-yl]-2-[(2R,5R)-5-methyl-2-(morpholin-4-ylmethyl)piperazin-1-yl]ethan-1-one]",EC50 [1]: 0.031 µM
–,–,"COC[C@H]1CN[C@H](C)CN1CC(=O)N1CC(C)(C)c2cnc(CCC(C)C)cc21 [Example 75, 1-[3,3-Dimethyl-6-(3-methyl-butyl)-2,3-dihydro-pyrrolo[3,2-c]pyridin-1-yl]-2-((2R,5R)-2-methoxy-methyl-5-methyl-piperazin-1-yl)-ethanone]",EC50 [1]: 0.5 µM
–,–,"C[C@@H]1CN(CC(=O)N2CC(C)(C)c3cnc(Cc4ccc(F)cc4F)cc32)[C@@H](CN2CCCC2)CN1 [Example 220, 1-{6-[(2,4-Difluorophenyl)methyl]-3,3-dimethyl-1H,2H,3H-pyrrolo[3,2-c]pyridin-1-yl}-2-[(2R,5R)-5-methyl-2-(pyrrolidin-1-ylmethyl)piperazin-1-yl]ethan-1-one dihydrochloride]",EC50 [1]: 0.049 µM
–,–,"C[C@@H]1CN(CC(=O)N2CC(C)(C)c3ccc(Cc4ccccc4)cc32)[C@@H](CO)CN1 [Example 42, 1-(6-Benzyl-3,3-dimethyl-2,3-dihydro-indol-1-yl)-2-((2R,5R)-2-hydroxymethyl-5-methyl-piperazin-1-yl)-ethanone trifluoroacetate salt]",EC50 [1]: 2.6 µM
1.5 µM,1.3 µM,"COC[C@H]1CN[C@H](C)CN1CC(=O)N1CC(C)(c2ccccn2)c2ccc(C#N)cc21 (mixture of isomers) [Example 156, 1-{2-[(2R,5R)-2-(Methoxymethyl)-5-methylpiperazin-1-yl]acetyl}-3-methyl-3-(pyridin-2-yl)-2,3-dihydro-1H-indole-6-carbonitrile hydrochloride [mixture of diastereoisomers]]",–
0.13 µM,0.17 µM,"C[C@@H]1CN(CC(=O)N2C[C@@](C)(c3ccccc3)c3ccc(C#N)cc32)[C@@H](Cn2cccn2)CN1 [Example 154, (3S)-3-Methyl-1-{2-[(2R,5R)-5-methyl-2-(1H-pyrazol-1-ylmethyl)piperazin-1-yl]acetyl}-3-phenyl-2,3-dihydro-1H-indole-6-carbonitrile]",–
4 µM,0.89 µM,"COC[C@H]1CN[C@H](C)CN1CC(=O)N1C[C@](C)(COC)c2ccc(Br)cc21 [Example 168, 1-[(3R)-6-Bromo-3-(methoxymethyl)-3-methyl-2,3-dihydro-1H-indol-1-yl]-2-[(2R,5R)-2-(methoxymethyl)-5-methylpiperazin-1-yl]ethan-1-one hydrochloride]",–
3.1 µM,0.68 µM,"CC[C@H]1CN[C@H](C)CN1CC(=O)N1CC(C)(C)c2cnc(Cn3cccn3)cc21 [Example 95, 1-[3,3-Dimethyl-6-(1H-pyrazol-1-ylmethyl)-1H,2H,3H-pyrrolo[3,2-c]pyridin-1-yl]-2-[(2S,5R)-2-ethyl-5-methylpiperazin-1-yl]ethan-1-one]",–
1.8 µM,2.1 µM,"CNC(=O)[C@H]1CN[C@H](C)CN1CC(=O)N1CC(C)(C)c2ccc(Cl)cc21 [Example 54, (2R,5R)-1-[2-(6-Chloro-3,3-dimethyl-2,3-dihydro-indol-1-yl)-2-oxo-ethyl]-5-methyl-piperazine-2-carboxylic acid methylamide hydrochloride salt]",–
0.072 µM,0.26 µM,"C[C@@H]1CN(CC(=O)N2C[C@](C)(c3ccccc3)c3ccc(C#N)cc32)[C@@H](Cn2cccn2)CN1 [Example 155, (3R)-3-Methyl-1-{2-[(2R,5R)-5-methyl-2-(1H-pyrazol-1-ylmethyl)piperazin-1-yl]acetyl}-3-phenyl-2,3-dihydro-1H-indole-6-carbonitrile]",–
–,–,"C[C@@H]1CN(CC(=O)N2CCc3ccc(C(=O)N4CCCC4)cc32)CCN1 [Example 18, 2-((R)-3-Methyl-piperazin-1-yl)-1-[6-(pyrrolidine-1-carbonyl)-2,3-dihydro-indol-1-yl]-ethanone]","inhibition at 49 µM ([2]; 1 h, @ 49 μM, read-out: IC50 or PI Xiap: PI): 47%; inhibition at 49 µM ([3]; 3 h, Probe A, @ 49 μM, read-out: IC50 or PI cIAP1: PI): 43%"
14 µM,15 µM,"C[C@@H]1CN(CC(=O)N2CC3(CCCC3)c3ccc(Cl)cc32)CCN1 [Example 50, 1-{6′-Chloro-1′,2′-dihydrospiro[cyclopentane-1,3′-indole]-1′-yl}-2-[(3R)-3-methyl-piperazin-1-yl]ethan-1-one hydrochloride salt]",–
2.5 µM,–,"CNS(=O)(=O)c1ccc2c(c1)N(C(=O)CN1CCN[C@H](C)C1)CC2 [Example 27, 1-[2-((R)-3-Methyl-piperazin-1-yl)-acetyl]-2,3-dihydro-1H-indole-6-sulfonic acid methylamide]","IC50 [3, 6]: 59 µM"
1.7 µM,0.63 µM,"COC[C@H]1CN[C@H](C)CN1CC(=O)N1CC(C)(C)c2nnc(Cl)cc21 [Example 183, 1-{3-Chloro-7,7-dimethyl-5H,6H,7H-pyrrolo[3,2-c]pyridazin-5-yl}-2-[(2R,5R)-2-(methoxymethyl)-5-methylpiperazin-1-yl]ethan-1-one hydrochloride]",IC50 [3]: < 1 µM
7.4 µM,–,"C[C@@H]1CN(CC(=O)N2CCc3cc(F)c(-c4ccccc4)cc32)CCN1 [Example 24, 1-(5-Fluoro-6-phenyl-2,3-dihydro-indol-1-yl)-2-((R)-3-methyl-piperazin-1-yl)-ethanone hydrochloride salt]","IC50 [3]: < 10 µM; IC50 [3, 6]: 2 µM"
–,–,"C[C@@H]1CN(CC(=O)N2CCc3ccc(N)cc32)CCN1 [Example 7, 1-(6-Amino-2,3-dihydro-indol-1-yl)-2-((R)-3-methyl-piperazin-1-yl)-ethanone]","inhibition at 1600 µM ([2]; 1 h, @ 1600 μM, read-out: IC50 or PI Xiap: PI): 43%; inhibition at 5000 µM ([3]; 3 h, Probe A, @ 5000 μM, read-out: IC50 or PI cIAP1: PI): -30%"
1.8 µM,–,"C[C@@H]1CN(CC(=O)N2CCc3ccc(S(=O)(=O)N4CCCC4)cc32)CCN1 [Example 37, 2-((R)-3-Methyl-piperazin-1-yl)-1-[6-(pyrrolidine-1-sulfonyl)-2,3-dihydro-indol-1-yl]-ethanone hydrochloride salt]","IC50 [3, 6]: 23 µM"
–,–,"COc1ccc2c(c1)N(C(=O)CN1CCN[C@H](C)C1)CC2 [Example 5, 1-(6-Methoxy-2,3-dihydro-indol-1-yl)-2-((R)-3-methyl-piperazin-1-yl)-ethanone]","inhibition at 160 µM ([2]; 1 h, @ 160 μM, read-out: IC50 or PI Xiap: PI): 49%; IC50 [3, 6]: 78 µM"
17 µM,–,"C[C@@H]1CN(CC(=O)N2CCc3ccc(OC(F)(F)F)cc32)CCN1 [Example 28, 2-((R)-3-Methyl-piperazin-1-yl)-1-(6-trifluoromethoxy-2,3-dihydro-indol-1-yl)-ethanone hydrochloride salt]","IC50 [3, 6]: 42 µM"
3.2 µM,0.65 µM,"COC[C@H]1CN[C@H](C)CN1CC(=O)N1CC(C)(C)c2cnc(N3CCCC3=O)cc21 [Example 102, 1-(1-{2-[(2R,5R)-2-(Methoxymethyl)-5-methylpiperazin-1-yl]acetyl}-3,3-dimethyl-1H,2H,3H-pyrrolo[3,2-c]pyridin-6-yl)pyrrolidin-2-one, hydrochloride salt]",IC50 [3]: < 1 µM
–,–,"CNC(=O)c1ccc2c(c1)N(C(=O)CN1CCN[C@H](C)C1)CC2 [Example 16, 1-[2-((R)-3-Methyl-piperazin-1-yl)-acetyl]-2,3-dihydro-1H-indole-6-carboxylic acid methylamide]","inhibition at 77 µM ([2]; 1 h, @ 77 μM, read-out: IC50 or PI Xiap: PI): 42%; inhibition at 250 µM ([3]; 3 h, Probe A, @ 250 μM, read-out: IC50 or PI cIAP1: PI): 56%"
0.64 µM,0.33 µM,"C[C@@H]1CN(CC(=O)N2CC(C)(C)c3ccc(Cl)cc32)[C@@H](Cn2cccn2)CN1 [Example 138, 1-(6-Chloro-3,3-dimethyl-2,3-dihydro-1H-indol-1-yl)-2-[(2R,5R)-5-methyl-2-(1H-pyrazol-1-ylmethyl)piperazin-1-yl]ethan-1-one hydrochloride]",–
2.6 µM,–,"C[C@@H]1CN(CC(=O)N2CCc3ccc(S(=O)(=O)N(C)C)cc32)CCN1 [Example 32, 1-[2-((R)-3-Methyl-piperazin-1-yl)-acetyl]-2,3-dihydro-1H-indole-6-sulfonic acid dimethylamide]","IC50 [3, 6]: 57 µM"

SMILES,IC50 [2],"IC50 [3, 4]",also measured
"C[C@@H]1CN(CC(=O)N2CC(C)(C)c3ncc(C(=O)c4ccccc4)cc32)[C@@H](CN2CCCC2=O)CN1 [Example 187, 1-{[(2R,5R)-1-(2-{6-Benzoyl-3,3-dimethyl-1H,2H,3H-pyrrolo[3,2-b]pyridin-1-yl}-2-oxoethyl)-5-methylpiperazin-2-yl]methyl}pyrrolidin-2-one dihydrochloride]",0.11 µM,–,"IC50 [3, 5]: 0.032 µM"
"C[C@@H]1CN(CC(=O)N2CCc3ccc(N(C)c4ccccc4)cc32)CCN1 [Example 2, 1-[6-(Methyl-phenyl-amino)-2,3-dihydro-indol-1-yl]-2-((R)-3-methyl-piperazin-1-yl)-ethanone Trifluoroacetate salt]",41 µM,–,"IC50 [3, 5]: 79 µM"
